Active and inactive are the calls of the source. The calls are words filed in the database; no cut-off is given here.
Assays:
A549 [1] = assay: Cytotoxicity against human A549 cells assessed as decrease in cell viability at 10 uM for 4 hrs measured after 3 days by Celltiter-Blue assay; type: functional, cell-based
A549 [2] = assay: Cytotoxicity against human A549 cells assessed as vacuoles formation at 6 uM after 20 hrs by phase contrast microscopy; type: functional, cell-based
A549 [3] = assay: Induction of ROS generation in human A549 cells at 6 uM for 16 hrs by MitoSox dye based flow cytometry; type: functional, cell-based
A549 [4] = assay: Induction of autophagy in human A549 cells assessed as increase in LC3-2 expression by western blot analysis; type: functional, cell-based
[5] = Cytotoxicity against human IMR90 cells assessed as slight decrease in cell viability at 10 uM for 4 hrs measured after 3 days by Celltiter-Blue assay; type: cell-based; conditions: imr-90, 10 µM
A549 [6] = assay: Induction of apoptosis in human A549 cells assessed as necrotic cells by annexin-V/PI staining analysis (reference value: 0.3%); type: functional
A549 [7] = assay: Effect on mitochondrial morphology in human A549 cells assessed as onion skin-like structures of mitochondria by electron microscopy; type: functional, cell-based
WM983B = assay: Cytotoxicity against human WM983B cells assessed as decrease in cell viability at 2 to 10 uM after 24 hrs by Celltiter-Blue assay; type: functional, cell-based
A549 [8] = assay: Induction of apoptosis in human A549 cells assessed as late apoptotic cells by annexin-V/PI staining analysis (reference value: 1.0%); type: functional
A549 [9] = assay: Induction of apoptosis in human A549 cells assessed as viable cells by annexin-V/PI staining analysis (reference value: 97.6%); type: functional
A549 [10] = assay: Cytotoxicity against human A549 cells assessed as decrease in cell viability after 24 hrs by Celltiter-Blue assay; type: functional, cell-based
MDA-MB-231 = assay: Cytotoxicity against human MDA-MB-231 cells assessed as decrease in cell viability at 2 to 10 uM after 24 hrs by Celltiter-Blue assay; type: functional, cell-based
A549 [11] = assay: Effect on oligomycin-induced inhibition of mitochondrial respiration in human A549 cells assessed as oxygen consumption rate by extracellular flux analyzer; type: functional, cell-based
PEO1 = assay: Cytotoxicity against human PEO1 cells assessed as decrease in cell viability at 2 to 10 uM after 24 hrs by Celltiter-Blue assay; type: functional, cell-based
A549 [12] = assay: Effect on mitochondrial morphology in human A549 cells assessed as vacuoles formation by electron microscopy; type: functional, cell-based
A549 [13] = assay: Induction of apoptosis in human A549 cells assessed as early apoptotic cells by annexin-V/PI staining analysis (reference value: 1.1%); type: functional
A549 [14] = assay: Induction of ROS generation in human A549 cells at 6 uM for 16 hrs by DCF dye based flow cytometry; type: functional, cell-based

CC(C)C[C@@H](/C=C/[C@H](Cc1ccccc1)C(=O)N1CCC[C@H]1C(=O)N[C@H](C(=O)N[C@@H](CCCNC(=O)OCc1ccccc1)C(=O)NCCC(=O)OC1CC2=C(OC1(C)C)c1ccccc1C(=O)C2=O)C(C)C)NC(=O)OC(C)(C)C (stereo not given in full)
inhibition (A549 [1]): Active | Activity (A549 [2]): Active | Activity (A549 [3]): Active | Activity (A549 [4]): Active | Activity [5]: Toxic | Activity (A549 [6]): 3.7% | Activity (A549 [7]): Active | inhibition (WM983B): Active | Activity (A549 [8]): 31.5% | Activity (A549 [9]): 60.9% | inhibition (A549 [10]): Dose-dependent effect | inhibition (MDA-MB-231): Active | Activity (A549 [11]): inactive | inhibition (PEO1): Active | Activity (A549 [12]): Active | Activity (A549 [13]): 3.9% | Activity (A549 [14]): Active

CC1(C)OC2=C(CC1O)C(=O)C(=O)c1ccccc12 (stereo not given)
Activity (A549 [2]): inactive | Activity (A549 [4]): inactive | Activity (A549 [6]): 1.1% | Activity (A549 [8]): 5.7% | Activity (A549 [9]): 89.2% | inhibition (A549 [10]): Dose-dependent effect | Activity (A549 [11]): Active | Activity (A549 [13]): 4%

From ChEMBL document CHEMBL3627710, “Mitochondrial targeted β-lapachone induces mitochondrial dysfunction and catastrophic vacuolization in cancer cells” (Bioorg Med Chem Lett, 2015)
